Reference: ChEMBL document CHEMBL1795303, “Synthesis and evaluation of benzofuran-2-yl(phenyl)methanone derivatives as ligands for β-amyloid plaques” (Bioorg Med Chem, 2011)
Calls of active or inactive are those of the source. The calls are words filed in the database; no cut-off is given here.

Columns and labels:
[1] = Displacement of [125I]-IMPY from amyloid beta (1 to 42) after 2 hrs by gamma counting
Mus musculus [2] = organism: Mus musculus; test: Binding affinity to beta-amyloid in APP/PS1 transgenic C57 mouse brain at 5 uCi/[…] after 1 hr by autoradiography; format: tissue-based; conditions: tested as the 125I-labelled form
Liver [3] = test: Biodistribution in ddY mouse liver at 0.9 uCi, iv after 60 mins by gamma counting; format: ADME, organism-based; conditions: in vivo, 1 h
Spleen [4] = test: Biodistribution in ddY mouse spleen at 0.9 uCi, iv after 60 mins by gamma counting; format: ADME, organism-based; conditions: in vivo, 1 h
Brain [5] = test: Biodistribution in ddY mouse brain at 0.9 uCi, iv after 2 mins by gamma counting; format: ADME, organism-based; conditions: in vivo
Blood [6] = test: Biodistribution in ddY mouse blood at 0.9 uCi, iv after 30 mins by gamma counting; format: ADME, organism-based; conditions: in vivo, 0.5 h
Brain [7] = test: Ratio of drug level in brain after 2 mins to drug level in brain after 30 mins ddY mouse at 0.9 uCi, iv; format: ADME, organism-based; conditions: in vivo
Stomach [8] = test: Biodistribution in ddY mouse stomach assessed per organ at 0.9 uCi, iv after 30 mins by gamma counting; format: ADME, organism-based; conditions: in vivo, 0.5 h
Heart [9] = test: Biodistribution in ddY mouse heart at 0.9 uCi, iv after 15 mins by gamma counting; format: ADME, organism-based; conditions: in vivo, 0.25 h
Kidney [10] = test: Biodistribution in ddY mouse kidney at 0.9 uCi, iv after 30 mins by gamma counting; format: ADME, organism-based; conditions: in vivo, 0.5 h
Stomach [11] = test: Biodistribution in ddY mouse stomach assessed per organ at 0.9 uCi, iv after 15 mins by gamma counting; format: ADME, organism-based; conditions: in vivo, 0.25 h
Spleen [12] = test: Biodistribution in ddY mouse spleen at 0.9 uCi, iv after 15 mins by gamma counting; format: ADME, organism-based; conditions: in vivo, 0.25 h
Kidney [13] = test: Biodistribution in ddY mouse kidney at 0.9 uCi, iv after 120 mins by gamma counting; format: ADME, organism-based; conditions: in vivo, 2 h
Liver [14] = test: Biodistribution in ddY mouse liver at 0.9 uCi, iv after 2 mins by gamma counting; format: ADME, organism-based; conditions: in vivo
Lung [15] = test: Biodistribution in ddY mouse lung at 0.9 uCi, iv after 2 mins by gamma counting; format: ADME, organism-based; conditions: in vivo
Liver [16] = test: Biodistribution in ddY mouse liver at 0.9 uCi, iv after 30 mins by gamma counting; format: ADME, organism-based; conditions: in vivo, 0.5 h
Blood [17] = test: Biodistribution in ddY mouse blood at 0.9 uCi, iv after 15 mins by gamma counting; format: ADME, organism-based; conditions: in vivo, 0.25 h
Stomach [18] = test: Biodistribution in ddY mouse stomach assessed per organ at 0.9 uCi, iv after 2 mins by gamma counting; format: ADME, organism-based; conditions: in vivo
Lung [19] = test: Biodistribution in ddY mouse lung at 0.9 uCi, iv after 60 mins by gamma counting; format: ADME, organism-based; conditions: in vivo, 1 h
[20] = Lipophilicity, log D of the compound; format: physicochemical; conditions: octanol/water
Mus musculus [21] = test: Biodistribution in ddY mouse thyroid assessed per organ at 0.9 uCi, iv after 15 mins by gamma counting; format: ADME, organism-based, Thyroid gland; conditions: in vivo, 0.25 h
Mus musculus [22] = test: Biodistribution in ddY mouse thyroid assessed per organ at 0.9 uCi, iv after 120 mins by gamma counting; format: ADME, organism-based, Thyroid gland; conditions: in vivo, 2 h
Intestine [23] = test: Biodistribution in ddY mouse intestine at 0.9 uCi, iv after 30 mins by gamma counting; format: ADME, organism-based; conditions: in vivo, 0.5 h
Brain [24] = test: Biodistribution in ddY mouse brain at 0.9 uCi, iv after 60 mins by gamma counting; format: ADME, organism-based; conditions: in vivo, 1 h
Blood [25] = test: Biodistribution in ddY mouse blood at 0.9 uCi, iv after 2 mins by gamma counting; format: ADME, organism-based; conditions: in vivo
Blood [26] = test: Biodistribution in ddY mouse blood at 0.9 uCi, iv after 120 mins by gamma counting; format: ADME, organism-based; conditions: in vivo, 2 h
Brain [27] = test: Biodistribution in ddY mouse brain at 0.9 uCi, iv after 30 mins by gamma counting; format: ADME, organism-based; conditions: in vivo, 0.5 h
Intestine [28] = test: Biodistribution in ddY mouse intestine at 0.9 uCi, iv after 2 mins by gamma counting; format: ADME, organism-based; conditions: in vivo
Kidney [29] = test: Biodistribution in ddY mouse kidney at 0.9 uCi, iv after 2 mins by gamma counting; format: ADME, organism-based; conditions: in vivo
Heart [30] = test: Biodistribution in ddY mouse heart at 0.9 uCi, iv after 2 mins by gamma counting; format: ADME, organism-based; conditions: in vivo
Lung [31] = test: Biodistribution in ddY mouse lung at 0.9 uCi, iv after 15 mins by gamma counting; format: ADME, organism-based; conditions: in vivo, 0.25 h
Lung [32] = test: Biodistribution in ddY mouse lung at 0.9 uCi, iv after 120 mins by gamma counting; format: ADME, organism-based; conditions: in vivo, 2 h
Liver [33] = test: Biodistribution in ddY mouse liver at 0.9 uCi, iv after 15 mins by gamma counting; format: ADME, organism-based; conditions: in vivo, 0.25 h
Stomach [34] = test: Biodistribution in ddY mouse stomach assessed per organ at 0.9 uCi, iv after 120 mins by gamma counting; format: ADME, organism-based; conditions: in vivo, 2 h
Heart [35] = test: Biodistribution in ddY mouse heart at 0.9 uCi, iv after 120 mins by gamma counting; format: ADME, organism-based; conditions: in vivo, 2 h
Spleen [36] = test: Biodistribution in ddY mouse spleen at 0.9 uCi, iv after 30 mins by gamma counting; format: ADME, organism-based; conditions: in vivo, 0.5 h
Heart [37] = test: Biodistribution in ddY mouse heart at 0.9 uCi, iv after 30 mins by gamma counting; format: ADME, organism-based; conditions: in vivo, 0.5 h
Lung [38] = test: Biodistribution in ddY mouse lung at 0.9 uCi, iv after 30 mins by gamma counting; format: ADME, organism-based; conditions: in vivo, 0.5 h
Mus musculus [39] = test: Biodistribution in ddY mouse thyroid assessed per organ at 0.9 uCi, iv after 60 mins by gamma counting; format: ADME, organism-based, Thyroid gland; conditions: in vivo, 1 h
Stomach [40] = test: Biodistribution in ddY mouse stomach assessed per organ at 0.9 uCi, iv after 60 mins by gamma counting; format: ADME, organism-based; conditions: in vivo, 1 h
Intestine [41] = test: Biodistribution in ddY mouse intestine at 0.9 uCi, iv after 15 mins by gamma counting; format: ADME, organism-based; conditions: in vivo, 0.25 h
Blood [42] = test: Biodistribution in ddY mouse blood at 0.9 uCi, iv after 60 mins by gamma counting; format: ADME, organism-based; conditions: in vivo, 1 h
Mus musculus [43] = test: Biodistribution in ddY mouse thyroid assessed per organ at 0.9 uCi, iv after 30 mins by gamma counting; format: ADME, organism-based, Thyroid gland; conditions: in vivo, 0.5 h
Brain [44] = test: Biodistribution in ddY mouse brain at 0.9 uCi, iv after 120 mins by gamma counting; format: ADME, organism-based; conditions: in vivo, 2 h
Heart [45] = test: Biodistribution in ddY mouse heart at 0.9 uCi, iv after 60 mins by gamma counting; format: ADME, organism-based; conditions: in vivo, 1 h
Kidney [46] = test: Biodistribution in ddY mouse kidney at 0.9 uCi, iv after 60 mins by gamma counting; format: ADME, organism-based; conditions: in vivo, 1 h
Intestine [47] = test: Biodistribution in ddY mouse intestine at 0.9 uCi, iv after 120 mins by gamma counting; format: ADME, organism-based; conditions: in vivo, 2 h
Spleen [48] = test: Biodistribution in ddY mouse spleen at 0.9 uCi, iv after 120 mins by gamma counting; format: ADME, organism-based; conditions: in vivo, 2 h
Intestine [49] = test: Biodistribution in ddY mouse intestine at 0.9 uCi, iv after 60 mins by gamma counting; format: ADME, organism-based; conditions: in vivo, 1 h
Mus musculus [50] = test: Biodistribution in ddY mouse thyroid assessed per organ at 0.9 uCi, iv after 2 mins by gamma counting; format: ADME, organism-based, Thyroid gland; conditions: in vivo
Spleen [51] = test: Biodistribution in ddY mouse spleen at 0.9 uCi, iv after 2 mins by gamma counting; format: ADME, organism-based; conditions: in vivo
Liver [52] = test: Biodistribution in ddY mouse liver at 0.9 uCi, iv after 120 mins by gamma counting; format: ADME, organism-based; conditions: in vivo, 2 h
Brain [53] = test: Biodistribution in ddY mouse brain at 0.9 uCi, iv after 15 mins by gamma counting; format: ADME, organism-based; conditions: in vivo, 0.25 h
Kidney [54] = test: Biodistribution in ddY mouse kidney at 0.9 uCi, iv after 15 mins by gamma counting; format: ADME, organism-based; conditions: in vivo, 0.25 h

## Nc1ccc(C(=O)c2cc3cc(I)ccc3o2)cc1
[1]
  Ki: 133 nM

## CN(C)c1ccc(C(=O)c2cc3cc(I)ccc3o2)cc1
Mus musculus [2]
  Activity: Active
[1]
  Ki: 6.6 nM

## CN(C)c1ccc(C(=O)c2cc3cc([125I])ccc3o2)cc1
Liver [3]
  Drug uptake: 5.09 % ID/g
Spleen [4]
  Drug uptake: 0.66 % ID/g
Brain [5]
  Drug uptake: 3.53 % ID/g
Blood [6]
  Drug uptake: 1.07 % ID/g
Brain [7]
  Ratio: 2.34
Stomach [8]
  Drug uptake: 2.6 %ID
Heart [9]
  Drug uptake: 1.45 % ID/g
Kidney [10]
  Drug uptake: 4.28 % ID/g
Stomach [11]
  Drug uptake: 1.54 %ID
Spleen [12]
  Drug uptake: 1.59 % ID/g
Kidney [13]
  Drug uptake: 1.64 % ID/g
Liver [14]
  Drug uptake: 16.19 % ID/g
Lung [15]
  Drug uptake: 7.34 % ID/g
Liver [16]
  Drug uptake: 6.7 % ID/g
Blood [17]
  Drug uptake: 1.16 % ID/g
Stomach [18]
  Drug uptake: 0.95 %ID
Lung [19]
  Drug uptake: 0.94 % ID/g
[20]
  logD: 4.4
Mus musculus [21]
  Drug uptake: 0.05 %ID
Mus musculus [22]
  Drug uptake: 0.8 %ID
Intestine [23]
  Drug uptake: 21.81 % ID/g
Brain [24]
  Drug uptake: 0.87 % ID/g
Blood [25]
  Drug uptake: 2.56 % ID/g
Blood [26]
  Drug uptake: 0.63 % ID/g
Brain [27]
  Drug uptake: 1.51 % ID/g
Intestine [28]
  Drug uptake: 3.14 % ID/g
Kidney [29]
  Drug uptake: 10.26 % ID/g
Heart [30]
  Drug uptake: 7.01 % ID/g
Lung [31]
  Drug uptake: 2.2 % ID/g
Lung [32]
  Drug uptake: 0.79 % ID/g
Liver [33]
  Drug uptake: 11 % ID/g
Stomach [34]
  Drug uptake: 3.76 %ID
Heart [35]
  Drug uptake: 0.49 % ID/g
Spleen [36]
  Drug uptake: 0.94 % ID/g
Heart [37]
  Drug uptake: 1.15 % ID/g
Lung [38]
  Drug uptake: 1.61 % ID/g
Mus musculus [39]
  Drug uptake: 0.46 %ID
Stomach [40]
  Drug uptake: 3.1 %ID
Intestine [41]
  Drug uptake: 11.77 % ID/g
Blood [42]
  Drug uptake: 0.82 % ID/g
Mus musculus [43]
  Drug uptake: 0.18 %ID
Brain [44]
  Drug uptake: 0.41 % ID/g
Heart [45]
  Drug uptake: 0.74 % ID/g
Kidney [46]
  Drug uptake: 1.9 % ID/g
Intestine [47]
  Drug uptake: 25.19 % ID/g
Spleen [48]
  Drug uptake: 0.43 % ID/g
Intestine [49]
  Drug uptake: 20.88 % ID/g
Mus musculus [50]
  Drug uptake: 0.02 %ID
Spleen [51]
  Drug uptake: 2.75 % ID/g
Liver [52]
  Drug uptake: 3.59 % ID/g
Brain [53]
  Drug uptake: 2.38 % ID/g
Kidney [54]
  Drug uptake: 3.84 % ID/g

## O=C(c1ccc([N+](=O)[O-])cc1)c1cc2cc(I)ccc2o1
[1]
  Ki: > 1000 nM

## CNc1ccc(C(=O)c2cc3cc(I)ccc3o2)cc1
Mus musculus [2]
  Activity: Active
[1]
  Ki: 34.5 nM

## Nc1ccc(C(=O)c2cc3cc(Br)ccc3o2)cc1
[1]
  Ki: 157 nM

## CNc1ccc(C(=O)c2cc3cc(Br)ccc3o2)cc1
[1]
  Ki: 44.9 nM

## O=C(c1ccc([N+](=O)[O-])cc1)c1cc2cc(Br)ccc2o1
[1]
  Ki: > 1000 nM

## CN(C)c1ccc(C(=O)c2cc3cc(Br)ccc3o2)cc1
[1]
  Ki: 8.8 nM
